Experimental data: patent US12679824B2 (Hoffmann-La Roche Inc., priority 2020, dated 2026)

test system: Acinetobacter baumannii ATCC17961; assay: 90% Growth Inhibitory Concentration (IC90) determination, antimicrobial susceptibility testing; type: cell-based; settings: Acinetobacter baumannii, ATCC17961, 16 h, Acinetobacter baumannii ATCC17961; Iso-Sensitest broth; growth by optical density at 600 nm over 16h; concentration inhibiting 90% of the growth; read-out: ATCC 17961 IC90
Procedure, shortened: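 Broth microdilution in Iso-Sensitest medium, compounds twofold diluted (e.g. 50–0.097 μM final), inoculum ~5×10^(5) CFU/ml, 35±2° C. OD600 was read every 20 min over 16 h. IC90 was derived from growth inhibition during logarithmic growth.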

Row | SMILES | IC90 [nM]
1 | Cn1c(-c2cn(-c3nccc(N)n3)nc2C(F)(F)F)cnc1C(=O)Nc1ccc(C(=O)N2CCN(C(=O)C3CCNCC3)CC2)c(Cl)c1 [Example A15, 5-[1-(4-aminopyrimidin-2-yl)-3-(trifluoromethyl)pyrazol-4-yl]-N-[3-chloro-4-[4-(piperidine-4-carbonyl)piperazine-1-carbonyl]phenyl]-1-methyl-imidazole-2-carboxamide] | 590
2 | Cn1c(-c2cn(-c3ccc([N+](=O)[O-])cn3)nc2C(F)(F)F)cnc1C(=O)Nc1ccc(C(=O)N2CCN(C(=O)[C@H]3NCC[C@@H]3O)CC2)c(Cl)c1 [Example C17, N-[3-chloro-4-[4-[(2S,3S)-3-hydroxypyrrolidine-2-carbonyl]piperazine-1-carbonyl]phenyl]-1-methyl-5-[1-(5-nitro-2-pyridyl)-3-(trifluoromethyl)pyrazol-4-yl]imidazole-2-carboxamide] | 790
3 | COc1nccc(-n2cc(-c3cnc(C(=O)Nc4ccc(C(=O)N5CCN(C(=O)C6CCNCC6)CC5)c(Cl)c4)n3C)c(C(F)(F)F)n2)n1 [Example C6, N-[3-chloro-4-[4-(piperidine-4-carbonyl)piperazine-1-carbonyl]phenyl]-5-[1-(2-methoxypyrimidin-4-yl)-3-(trifluoromethyl)pyrazol-4-yl]-1-methyl-imidazole-2-carboxamide] | 890
4 | Cn1c(-c2cn(-c3ncc(F)cn3)nc2C(F)(F)F)cnc1C(=O)Nc1ccc(C(=O)N2CCN(C(=O)C3CCNCC3)CC2)c(Cl)c1 [Example A8, N-[3-chloro-4-[4-(piperidine-4-carbonyl)piperazine-1-carbonyl]phenyl]-5-[1-(5-fluoropyrimidin-2-yl)-3-(trifluoromethyl)pyrazol-4-yl]-1-methyl-imidazole-2-carboxamide] | 910
5 | Cn1c(-c2cn(-c3ccccn3)nc2C(F)(F)F)cnc1C(=O)Nc1ccc(C(=O)N2CCN(C(=O)C3CCNCC3)CC2)c(Cl)c1 [Example A11, N-[3-chloro-4-[4-(piperidine-4-carbonyl)piperazine-1-carbonyl]phenyl]-1-methyl-5-[1-(2-pyridyl)-3-(trifluoromethyl)pyrazol-4-yl]imidazole-2-carboxamide] | 240
6 | Cn1c(-c2cn(-c3nccc(OCCN)n3)nc2C(F)(F)F)cnc1C(=O)Nc1ccc(C(=O)N2CCN(C(=O)C3CCNCC3)CC2)c(Cl)c1 [Example A14, 5-[1-[4-(2-aminoethoxy)pyrimidin-2-yl]-3-(trifluoromethyl)pyrazol-4-yl]-N-[3-chloro-4-[4-(piperidine-4-carbonyl)piperazine-1-carbonyl]phenyl]-1-methyl-imidazole-2-carboxamide] | 2200
7 | Cc1c[nH]nc1-n1cc(-c2cnc(C(=O)Nc3ccc(C(=O)N4CCN(C(=O)C5CCN(C)CC5)CC4)c(Cl)c3)n2C)c(C(F)(F)F)n1 [Example C15, N-[3-chloro-4-[4-(1-methylpiperidine-4-carbonyl)piperazine-1-carbonyl]phenyl]-1-methyl-5-[1-(4-methyl-1H-pyrazol-3-yl)-3-(trifluoromethyl)pyrazol-4-yl]imidazole-2-carboxamide] | 910
8 | Cn1c(-c2cn(-c3ncc(N)cn3)nc2C(F)(F)F)cnc1C(=O)Nc1ccc(C(=O)N2CCN(C(=O)C3CCNCC3)CC2)c(Cl)c1 [Example A5, 5-[1-(5-aminopyrimidin-2-yl)-3-(trifluoromethyl)pyrazol-4-yl]-N-[3-chloro-4-[4-(piperidine-4-carbonyl)piperazine-1-carbonyl]phenyl]-1-methyl-imidazole-2-carboxamide] | 1000
9 | CNc1ccnc(-n2cc(-c3cnc(C(=O)Nc4ccc(C(=O)N5CCN(C(=O)C6CCNCC6)CC5)c(Cl)c4)n3C)c(C(F)(F)F)n2)n1 [Example A16, N-[3-chloro-4-[4-(piperidine-4-carbonyl)piperazine-1-carbonyl]phenyl]-1-methyl-5-[1-[4-(methylamino)pyrimidin-2-yl]-3-(trifluoromethyl)pyrazol-4-yl]imidazole-2-carboxamide] | 680

Now from value to compound:

Row | IC90 [nM] | SMILES
10 | 1180 | Cn1c(-c2cn(-c3ccc(N)cn3)nc2C(F)(F)F)cnc1C(=O)Nc1ccc(C(=O)NC2CN(C(=O)[C@@H]3C[C@@H](O)CN3)CC2CO)c(Cl)c1 (stereo partly drawn) [Example Z27, 5-[1-(5-amino-2-pyridyl)-3-(trifluoromethyl)pyrazol-4-yl]-N-[3-chloro-4-[[1-[(2S,4R)-4-hydroxyprolyl]-4-methylol-pyrrolidin-3-yl]carbamoyl]phenyl]-1-methyl-imidazole-2-carboxamide]
11 | 310 | CNc1ccc(-n2cc(-c3cnc(C(=O)Nc4ccc(C(=O)N5CCN(C(=O)CN6CCC(O)C6)CC5)c(Cl)c4)n3C)c(C(F)(F)F)n2)nc1 (centres unmarked) [Example D5, N-[3-chloro-4-[4-[2-(3-hydroxypyrrolidin-1-yl)acetyl]piperazine-1-carbonyl]phenyl]-1-methyl-5-[1-[5-(methylamino)-2-pyridyl]-3-(trifluoromethyl)pyrazol-4-yl]imidazole-2-carboxamide]
12 | 1180 | Cn1c(-c2cn(-c3ccc(N)cn3)nc2C(F)(F)F)cnc1C(=O)Nc1ccc(C(=O)NCC2CC2NC(=O)[C@@H]2C[C@@H](O)CN2)c(Cl)c1 (stereo partly drawn) [Example Z36, 5-[1-(5-amino-2-pyridyl)-3-(trifluoromethyl)pyrazol-4-yl]-N-[3-chloro-4-[[2-[[(2S,4R)-4-hydroxyprolyl]amino]cyclopropyl]methylcarbamoyl]phenyl]-1-methyl-imidazole-2-carboxamide]
13 | 510 | Cn1c(-c2cn(-c3ccc(N)cn3)nc2C(F)(F)F)cnc1C(=O)Nc1ccc(C(=O)N[C@H]2CC[C@H](NC(=O)[C@@H]3C[C@@H](O)CN3)C2)c(Cl)c1 [Example Z48, 5-[1-(5-amino-2-pyridyl)-3-(trifluoromethyl)pyrazol-4-yl]-N-[3-chloro-4-[[(1S,3S)-3-[[(2S,4R)-4-hydroxyprolyl]amino]cyclopentyl]carbamoyl]phenyl]-1-methyl-imidazole-2-carboxamide]
14 | 220 | CNC1CCN(C(=O)c2ccc(NC(=O)c3ncc(-c4cn(-c5ccc(N)cn5)nc4C(F)(F)F)n3C)cc2Cl)CC1 [Example Z4, 5-[1-(5-amino-2-pyridyl)-3-(trifluoromethyl)pyrazol-4-yl]-N-[3-chloro-4-[4-(methylamino)piperidine-1-carbonyl]phenyl]-1-methyl-imidazole-2-carboxamide]
15 | 890 | Cn1c(-c2cn(-c3ccc(N)cn3)nc2C(F)(F)F)cnc1C(=O)Nc1ccc(C(=O)N2CCNCC23CC3)c(Cl)c1 [Example Z67, 5-[1-(5-amino-2-pyridyl)-3-(trifluoromethyl)pyrazol-4-yl]-N-[3-chloro-4-(4,7-diazaspiro[2.5]octane-4-carbonyl)phenyl]-1-methyl-imidazole-2-carboxamide]
16 | 230 | Cn1c(-c2cn(-c3ccc(N)nc3F)nc2C(F)(F)F)cnc1C(=O)Nc1ccc(C(=O)N2CCN(C(=O)C3CCNCC3)CC2)c(Cl)c1 [Example Z84, 5-[1-(6-amino-2-fluoro-3-pyridyl)-3-(trifluoromethyl)pyrazol-4-yl]-N-[3-chloro-4-[4-(piperidine-4-carbonyl)piperazine-1-carbonyl]phenyl]-1-methyl-imidazole-2-carboxamide]
17 | 290 | Cc1nc(-n2cc(-c3cnc(C(=O)Nc4ccc(C(=O)N5CCN(C(=O)C6CCNCC6)CC5)c(Cl)c4)n3C)c(C(F)(F)F)n2)ccc1N [Example Z86, 5-[1-(5-amino-6-methylpyridin-2-yl)-3-(trifluoromethyl)pyrazol-4-yl]-N-[3-chloro-4-[4-(piperidine-4-carbonyl)piperazine-1-carbonyl]phenyl]-1-methylimidazole-2-carboxamide]
18 | 1110 | COc1ccc(-n2cc(-c3cnc(C(=O)Nc4ccc(C(=O)N5CCN(C(=O)C6CCNCC6)CC5)c(Cl)c4)n3C)c(C(F)(F)F)n2)cn1 [Example Z75, N-[3-chloro-4-(4-isonipecotoylpiperazine-1-carbonyl)phenyl]-5-[1-(6-methoxy-3-pyridyl)-3-(trifluoromethyl)pyrazol-4-yl]-1-methyl-imidazole-2-carboxamide]
19 | 780 | Cn1c(-c2cn(-c3ccc(Cl)nc3)nc2C(F)(F)F)cnc1C(=O)Nc1ccc(C(=O)N2CCN(C(=O)[C@@H]3C[C@@H](O)CN3)CC2)c(Cl)c1 [Example Z30, N-[3-chloro-4-[4-[(2S,4R)-4-hydroxyprolyl]piperazine-1-carbonyl]phenyl]-5-[1-(6-chloro-3-pyridyl)-3-(trifluoromethyl)pyrazol-4-yl]-1-methyl-imidazole-2-carboxamide]
20 | 370 | Cn1c(-c2cn(-c3ccc(N)cn3)nc2C(F)(F)F)cnc1C(=O)Nc1ccc(C(=O)N2CCC3(CCNC3)CC2)c(Cl)c1 [Example Z8, 5-[1-(5-amino-2-pyridyl)-3-(trifluoromethyl)pyrazol-4-yl]-N-[3-chloro-4-(2,8-diazaspiro[4.5]decane-8-carbonyl)phenyl]-1-methyl-imidazole-2-carboxamide]

same assay, conditions: Acinetobacter baumannii, ATCC17961, 16 h, read-out: ATCC 17961 IC90

Row | SMILES | IC90 [nM]
21 | Cn1c(-c2cn(-c3ccc(N)cn3)nc2C(F)(F)F)cnc1C(=O)Nc1ccc(C(=O)N2CCC(CN3CCNCC3=O)CC2)c(Cl)c1 [Example I1, 5-[1-(5-Amino-2-pyridyl)-3-(trifluoromethyl)pyrazol-4-yl]-N-[3-chloro-4-[4-[(2-oxopiperazin-1-yl)methyl]piperidine-1-carbonyl]phenyl]-1-methyl-imidazole-2-carboxamide] | 1500
22 | Cn1c(-c2cn(-c3ccc(N)cn3)nc2C(F)(F)F)cnc1C(=O)Nc1ccc(C(=O)N2CCN(C(=O)[C@@H]3CC(O)CCN3)CC2)c(Cl)c1 (some centres unmarked) [Example J1] | 580
23 | Cn1c(-c2cn(-c3ncccn3)nc2C(F)(F)F)cnc1C(=O)Nc1ccc(C(=O)N2CCN(C(=O)C3CCNCC3)CC2)c(Cl)c1 [Example A1, N-[3-Chloro-4-[4-(piperidine-4-carbonyl)piperazine-1-carbonyl]phenyl]-1-methyl-5-[1-pyrimidin-2-yl-3-(trifluoromethyl)pyrazol-4-yl]imidazole-2-carboxamide] | 690
